Measurements from patent publication US12251398B2, “Topical compositions designated to maintain and/or restore the integrity of the mucosa and damaged epidermis” (RICERFARMA S.R.L., priority 2020, dated 2025).

Assays:
[1] = system: Hyaluronidase from bovine testes I-S Type; assay: Enzymatic degradation of hyaluronic acid by hyaluronidase, Mw followed by HP-SEC-TDA; assay type: biochemical; conditions: in words
From the text: The molecular weight distribution of degraded acids will be analyzed by using High Performance Size Exclusion Chromatography coupled with a Triple Detector Array (HP-SEC-TDA).
The following is the list of reagents and materials used: • Hyaluronic acid (Mw 1.348.000 Da), Contipro a.s. (Czech Republic) • Hyaluronic acid (Mw 1.450.000 Da), Lehvoss Italia S.r.l. (Italy) • Glycerophosphocholine • Ascorbyl Palmitate • Citric acid monohydrate, Sigma Aldrich • Deionized H2O obtained with a Culligan apparatus; • Hyaluronidase from bovine testes I-S Type. 400-1000 units/mg. Sigma Aldrich; • NaNO3. Sigma Aldrich; • NaN3. Sigma Aldrich; • Snap-it vial 0.3 ml, 11.6×32 mm. Thermo Scientific; • Snap-it cap 11 mm, Thermo Scientific; • Sodium citrate diidrate, Sigma Aldrich. Samples Prepared and Tested:
10 ml of solution were hydrolyzed.
Buffer Solution: Solution 1 has been added to Solution 2 and stirred at room temperature for 30′. Resulting pH=6.06.
Hyaluronidase: about 10 mg of hyaluronidase were dissolved in about 1 ml of H2O and stirred at room temperature for 3 hours (10 mg/ml).
The solutions were stirred at 38° C. in an oil bath for about 1 h before adding 67 μl of the enzyme solution (HA/Hyaluronidase 15/1 w/w).
Different aliquots of solutions were collected at different timing (1 h; 2 h; 3 h; 4 h; 5 h; 6 h, 24 h) and heated at 100° C. for 5′ using a thermoshaker to denature the enzyme. The solutions were filtrated to remove the precipitated enzyme (LLG-Syringe filter CA pore size 0.20 μm. Ø 13 mm). Before HP-SEC-TDA analyses, the solutions were diluted to 0.5 mg/ml of HA with mobile phase.
Two equivalent HP-SEC-TDA instruments were used: • 1) Viscotek system model TDA305. equipped with Refractive Index, Right and Low Angle Light Scattering and Viscometers detectors, was used under the following conditions: • Columns: 2 columns TSKGMPWXL 13 μm. […]

hyaluronidases = conditions: known, in words; cited from earlier work
[2] = as disclosed in WO93/19730; cited from earlier work

| Compound | effect on the enzymatic kinetics of HA degradation [1] | effect on the enzymatic kinetics of HA degradation ([1]; listed as ascorbyl palmitate) | inhibitory activity against hyaluronidases (hyaluronidases) | systemic toxicity [2] | topical tolerability [2] |
| --- | --- | --- | --- | --- | --- |
| CCCCCCCCCCCCCCCC(=O)OC[C@H](O)[C@H]1OC(=O)C(O)=C1O [Ascorbyl Palmitate, Ascorbyl palmitate] | significantly effective in slowing down the enzymatic kinetics | significantly effective in slowing enzymatic kinetics | significant inhibitory activity |  |  |
| C[N+](C)(C)CCOP(=O)([O-])OC[C@H](O)CO [Glycerophosphocholine] | does not contribute in any way to the enzymatic kinetics |  |  | practically devoid of systemic toxicity | marked topical tolerability |
